# Values quoted from earlier work as cited in PMC10552101 (ACS Omega, 2023).
compound,measurement,value
"CNC1CC(c2ccc(Cl)c(Cl)c2)c2ccccc21 (stereo not shown) [LU-19-005, indatraline]",onset,slow onset
